This is an account of results in article PMC6988089 (Journal of the American Chemical Society, 2019).

Type in all cases: biochemical
One assay has as its system G9a Y1154A mutant. Put plainly: Substrate peptide alkylation by G9a-Y1154A with SAM analogues. The following applies: TAMRA-labeled H3K9 peptide; MALDI-MS.
The next assay relates to G9a Y1154G mutant. Put plainly: Substrate peptide benzylation by G9a-Y1154G.
A further assay relates to Y372G mutant of Suv39H2. Put plainly: Benzylation of substrate peptide and full-length H3 by Suv39H2-Y372G.
Assay [1] deals with Suv39H2 mutant / hole-modified CBX1. The following applies: full-length H3 and purified mononucleosomes; Western blot. Background: In western blotting, separated proteins are transferred to a membrane and probed.

Turning to `Nc1ncnc2c1ncn2[C@@H]1O[C@H](C[S+](CC[C@H](N)C(=O)O)Cc2ccccc2)[C@@H](O)[C@H]1O` (some centres unmarked) [benzyl-SAM], the “substrate modification by G9a-Y1154A” value in the assay with G9a Y1154A mutant is reported as “not efficient at incorporating benzyl modification”. Moreover, in the assay with G9a Y1154G mutant (TAMRA-labeled H3K9 peptide, MALDI-MS), the “substrate benzylation by G9a-Y1154G” value is listed as “complete substrate benzylation”. Besides, the “dibenzylation of substrate by G9a mutant” value in the assay on G9a Y1154G mutant (under our assay conditions, Figure S2) is “did not observe any dibenzylation”. Also, in the assay with Y372G mutant of Suv39H2, the “utilization of benzyl-SAM by Suv39H2-Y372G” value is “efficiently utilized benzyl-SAM”. Besides, the “H3 signal after enrichment with hole-modified CBX1” value in assay [1] is recorded as “signal for H3 only in the presence of benzyl-SAM”.
